Results: patent US20130150317A1, “COMPOUNDS FOR THE TREATMENT OF RENAL CELL CARCINOMA” (Myrovlytis Technology Ventures Limited, priority 2010, published 2013)
Entries after “also recorded” stand apart in the source; their conditions may differ. Structures can show the parent of a compound that is named as a salt. Where two headings read alike, the source gives them in different places.

What was measured:
UOK257-FLCN^− cells = assay: SRB growth inhibition assay in UOK257-FLCN^− cells; type: cell-based, human; settings: for GI50: SRB assay, 72 hours continuous exposure, mean ± SE (n), read-out: GI50 nM in UOK-FLCN^−; for GI50 Ratio of UOK-FLCN^+/UOK-FLCN^−: ratio>1 = more inhibitory to FLCN^− cells; for fold difference in the GI50 values between FLCN-null and FLCN-wild type UOK257 cells: GI50 higher in FLCN-wild type cells (FLCN-null more sensitive)
Description: (§1) Human renal carcinoma of BHD origin cells UOK-257 (UOK-FLCN^−) and FLCN transfected UOK-257 cells UOK-FLCN^+ (Yang et al Cancer Genet Cytogenet. 2008 Jan. 15; 180(2):100-9) were provided by Dr Marston Linehan and Dr. Laura S Schmidt (Urologic Oncology Branch, Centre for Cancer Research, National Cancer Institute, National Institutes of Health, Bethesda, Md. 20892, USA). UOK-257 is the only RCC cell line that has been derived from a patient with BHD and harbours a germline FLCN frameshift mutation (c.1285dupC) (predicted, in the absence of nonsense mediated mRNA decay, to lead to premature protein truncation (p.His429ProfsX27) (Yang et al., Cancer Genet Cytogenet, 2008 Jan. 15; 180(2):100-9). We are not aware of any sporadic RCC cell lines with homozygous FLCN inactivation. FTC-133 cells were purchased from ECACC (Salisbury, United Kingdom). These cells are a non-RCC cell line derived from human thyroid carcinoma. 786-0 cells were available from the author's lab (Clifford et al., Hum Mol Genet. 2001 May 1; 10(10):1029-38). 786-O is a kidney cancer cell line that harbours an inactivating VHL gene mutation (c.311delG p.G104fs*55). All cell lines were cultured in DMEM with supplement of 10% foetal bovine serum except for FTC-133 cells which were incubated in medium with DMEM and Hens (1:1).
(§2) The sensitivity of the cell lines to drug-induced cell growth inhibition was determined using the sulphorhodamine B assay (SRB) as described by Lu et al., Clin Cancer Res. 2001:7:2114-23. Briefly, adherent exponentially growing cells were seeded into 96-well plates at 3-5×10^3 cells/100 μl/well. […] The absorbance per well was measured at 570 nm on a Victor X3 Multilabel Plate Reader (PerkinElmor, Beaconsfield, United Kingdom).
GI50 values, defined as the concentration of compounds required to inhibit growth by 50%, were then calculated. The ratio of GI50 value from UOK257-FLCN^+ and UOK257-FLCN^− were calculated and used as an indicator for the sensitivity to FLCN mutant cells.

UOK257-FLCN^+ cells = assay: SRB growth inhibition assay in UOK257-FLCN^+ cells; type: cell-based, human; settings: 72 hours continuous exposure, mean ± SE (n), read-out: GI50 nM in UOK-FLCN^+
Description: as §1
as §2, with “μl/well. After 20-24 h at 37° C., drugs were added at the appropriate drug concentrations to the wells (final DMSO conc. 1%) as indicated in the Results section.” for “μl/well.”
UOK-257 is the only RCC cell line that has been derived from a patient with BHD and harbours a germline FLCN frameshift mutation (c.1285dupC) (predicted, in the absence of nonsense mediated mRNA decay, to lead to premature protein truncation (p.His429ProfsX27) (Yang et al Cancer Genet Cytogenet, 2008 Jan. 15; 180(2):100-9). Both UOK257-FLCN^− and UOK257-FLCN^+ cells were examined for their sensitivities to growth inhibition induced by 15 compounds selected from the COMPARE analysis. Various concentrations of compounds were introduced into the cells 24 hrs after seeding, incubation was continued for 72 hours and growth inhibition was assessed using the suiphorhodamine B (SRB) assay. GI50 values, defined as the concentration of compounds required to inhibit growth by 50%, were then calculated. The ratio of GI50 value from UOK257-FLCN^+ and UOK257-FLCN^− were calculated and used as an indicator for the sensitivity to FLCN mutant cells.

[1] = tested on: caspase3/7 activity in UOK257-FLCN^− and UOK257-FLCN^+ cells; assay: Caspase-Glo 3/7 assay in UOK-257 cells with/without FLCN expression; type: cell-based, human; settings: 48 hrs, all three concentrations
Method: The ability to induce caspase 3/7 activation after exposure to compounds was measured by Caspase-Glo 3/7 Assay (Promega, Southampton, United Kingdom) according to manufacturer's instruction. The cells were seeded and dosed as described in growth inhibition assay. At the end of incubation, 70 μl of medium was removed and 30 μl of assay reagent was added to the remaining medium. Additional one hour incubation with shaking was carried out at room temperature. The resultant luminescent light was measured in a Victor X3 Multilabel Plate Reader (PerkinElmer, Beaconsfield, United Kingdom). Cell viability after compound exposure was determined by CellTiter-Blue Cell Viability Assay (Promega, Southampton, the United Kingdom) according to manufacturer's instruction. At the end of drug treatment, 20 μl of reagent was added to the medium in 96 wells and the cells were incubated for additional 4 hours. The cell viability was measured by fluorescence with a 570 nm excitation and 590 nm emission set in a Victor X3 Multilabel Plate Reader (PerkinElmer, Beaconsfield, United Kingdom).
After 48 hrs incubation, with three concentration ranges for each drug, the capase3/7 activity was detected by amount of luminescence for each cell line. The ratio of caspase3/7 activity from UOK257-FLCN^− and UOK257-FLCN^+ were calculated and used as indicators for the ability of the individual compound to induce caspase3/7 activity to FLCN mutant cells.
These ratios were calculated and used as indicators for the sensitivity to mutant FLCN cells.

[2] = tested on: VHL-deficient cells in ccRCC cell lines; settings: Sutphin et al., Cancer Res 2007, cited from earlier work
[3] = tested on: 786-O cells with mutant VHL; assay: SRB growth inhibition in 786-O cells with mutant VHL; type: cell-based, human; settings: SRB assay, 72 hours
Description: as §1
as §2, with “μl/well. After 20-24 h at 37° C., drugs were added at the appropriate drug concentrations to the wells (final DMSO conc. 1%) as indicated in the Results section.” for “μl/well.”
Cells were exposed continuously to various concentrations of drugs for 72 hours. GI50 values were determined as the concentrations at 50% growth inhibition from at least three experiments.

[4] = tested on: FTC-133 cells transfected with empty vector; assay: SRB growth inhibition in FTC-133 cells, empty vector; type: cell-based, human; settings: SRB assay
Description: as §1, §2
(§3) A FLCN containing construct was introduced into parental FTC-133 cells and stably transfected cells were selected. SRB growth inhibition assay was carried out in cells transfected with empty vector and low FLCN and high FLCN expression.
as §3

Row | Compound | GI50 (UOK257-FLCN^− cells) [nM] | GI50 Ratio of UOK-FLCN^+/UOK-FLCN^− (UOK257-FLCN^− cells) | GI50 (UOK257-FLCN^+ cells) [nM] | GI50 (UOK257-FLCN^− cells; Homo sapiens) [nM] | GI50 (UOK257-FLCN^+ cells; Homo sapiens) [nM] | further results
1 | CC[C@H](C)[C@H]1NC(=O)[C@@H](NC(=O)[C@@H](CC(C)C)N(C)C(=O)[C@@H]2CCCN2C(=O)C(C)O)[C@@H](C)OC(=O)[C@H](Cc2ccc(OC)cc2)N(C)C(=O)[C@@H]2CCCN2C(=O)[C@H](CC(C)C)NC(=O)[C@@H](C)C(=O)[C@H](C(C)C)OC(=O)C[C@@H]1O (stereo partly shown) [didemnin B] | 7.94 ± 1.66 | 0.82 | 6.53 ± 1.78 | – | – | –
2 | COc1cccc2c1C(=O)c1c(O)c3c(c(O)c1C2=O)C[C@@](O)(C(=O)CO)C[C@@H]3O[C@H]1C[C@H](N2CCOCC2)[C@H](O)[C@H](C)O1 [morpholino-ADR, Morpholino-ADR] | 0.45 ± 0.03 | 0.97 | 0.44 ± 0.1 | – | – | –
3 | CO[C@@H]1C[C@](C)(O)Cc2cc3c(c(O)c21)C(=O)c1c(O)cc2c(c1C3=O)O[C@@H]1O[C@@]2(C)[C@H](O)[C@@H](N(C)C)[C@@H]1O [menogaril] | – | 1.29 | – | 588 ± 57 | 757 ± 117 | –
4 | bruceantin | 68.4 ± 14.9 | 0.64 | 43.6 ± 5.1 | – | – | ratio of caspase3/7 activity from UOK257-FLCN^− and UOK257-FLCN^+ [1]: < 1
5 | CO[C@@H]1[C@H](O)C[C@@H](O[C@@H]2C[C@H](Oc3cc4cc5c(c(O)c4c(O)c3C)C(=O)[C@@H](O[C@H]3C[C@@H](O[C@H]4C[C@@H](O[C@H]6C[C@](C)(O)[C@@H](OC(C)=O)[C@H](C)O6)[C@H](O)[C@@H](C)O4)[C@H](O)[C@@H](C)O3)[C@H]([C@H](OC)C(=O)[C@@H](O)[C@@H](C)O)C5)O[C@H](C)[C@@H]2OC(C)=O)O[C@@H]1C [chromomycin A3] | – | 0.88 | – | 37.4 ± 6.9 | – | differential growth inhibitory activity in FLCN-deficient and FLCN-positive UOK-257 cell lines (in words) (UOK257-FLCN^− cells; listed as ChA3): did not find any differences; also recorded: does not demonstrate selective toxicity; also recorded: does not show differential growth inhibitory activity; GI50 (UOK257-FLCN^+ cells; Homo sapiens, 72 h): 33 ± 5.7 nM; differential toxicity to VHL-deficient relative to VHL-positive RCC cell lines (in words) ([2]; listed as ChA3): discriminate killing of VHL-deficient cells; differential toxicity to VHL-deficient relative to VHL-positive RCC cell lines (in words) ([2]; listed as Chromomycin A3 (ChA3)): differential toxicity
6 | COc1cc([C@@H]2c3cc4c(cc3[C@@H](O[C@@H]3O[C@@H]5CO[C@@H](c6cccs6)O[C@H]5[C@H](O)[C@H]3O)[C@H]3COC(=O)[C@H]23)OCO4)cc(OC)c1O [VM-26 (teniposide), teniposide] | – | 1.10 | – | 773 ± 162 | 849 ± 358 | –
7 | CC(=O)O[C@@H]1[C@@H](O)[C@H](O[C@H]2[C@H](OC(=O)[C@H]3CC[C@@H]4[C@H](C3)O[C@@]3(C[C@H](OC(=O)/C=C/c5ccccc5)[C@H](C)CO3)[C@]43CO3)O[C@H](C)[C@@H](O)[C@@H]2OC(C)=O)O[C@H](C)[C@H]1O [phyllanthoside] | – | 2.15 | – | 199 ± 79 | – | fold difference in the GI50 values between FLCN-null and FLCN-wild type UOK257 cells (UOK257-FLCN^− cells): ~2 fold; GI50 (UOK257-FLCN^+ cells; Homo sapiens, 72 h): 427 ± 97 nM
8 | COc1cccc2c1C(=O)c1c(O)c3c(c(O)c1C2=O)C[C@@](O)(C(C)=O)C[C@@H]3O[C@H]1C[C@H](N(Cc2ccccc2)Cc2ccccc2)[C@@H](O)[C@H](C)O1 [N,N-dibenzyldaunomycin] | 5740 ± 918 | 0.22 | 1270 ± 549 | – | – | –
9 | CC[C@]1(O)C[C@H]2CN(CCc3c([nH]c4ccccc34)[C@@](C(=O)OC)(c3cc4c(cc3OC)N(C=O)[C@H]3[C@@](O)(C(=O)OC)[C@H](OC(C)=O)[C@]5(CC)C=CCN6CC[C@]43[C@@H]65)C2)C1 [vincristine sulphate, vincristine sulfate] | – | 1.88 | – | 30.1 ± 10.3 | 56.4 ± 17.5 | fold difference in the GI50 values between FLCN-null and FLCN-wild type UOK257 cells (UOK257-FLCN^− cells): ~2 fold; change in growth inhibition for 786-0 cells with/without VHL expression (in words) [3]: no significant change; differential sensitivity in FTC-133 cells with different levels of FLCN expression (in words) [4]: no selective vincristine sensitivity
10 | CC(=O)O[C@H]1C(=O)[C@@]2(C)[C@H]([C@H](OC(=O)c3ccccc3)[C@]3(O)C[C@H](OC(=O)[C@H](O)[C@@H](NC(=O)c4ccccc4)c4ccccc4)C(C)=C1C3(C)C)[C@]1(OC(C)=O)CO[C@@H]1C[C@@H]2O [paclitaxel (taxol), paclitaxel] | – | 6.81 | – | 75.5 ± 9.2 | 514 ± 86 | fold difference in the GI50 values between FLCN-null and FLCN-wild type UOK257 cells (UOK257-FLCN^− cells): ~7 fold
11 | COc1cccc2c1C(=O)c1c(O)c3c(c(O)c1C2=O)C[C@@](O)(C(=O)CO)C[C@@H]3O[C@H]1C[C@H](N)[C@H](O)[C@H](C)O1 [doxorubicin (adriamycin), doxorubicin] | – | 1.37 | – | 423 ± 54 | 581 ± 109 | –
12 | C(=N\NC1=NCCN1)/c1c2ccccc2c(/C=N/NC2=NCCN2)c2ccccc12 [bisantrene hydrochloride] | – | 0.77 | – | 1750 ± 288 | 1340 ± 602 | –
13 | COc1cccc2c1C(=O)c1c(O)c3c(c(O)c1C2=O)C[C@@](O)(C(=O)CO)C[C@@H]3O[C@H]1C[C@H](N2CCOCC2C#N)[C@H](O)[C@H](C)O1 (stereo partly shown) [cyanomorpholino-ADR] | 3.79 ± 0.39 | 0.16 | 0.62 ± 0.16 | – | – | fold difference in the GI50 values between UOK257-FLCN^+ and UOK257-FLCN^− cells (UOK257-FLCN^− cells; GI50 higher in FLCN^− cells (FLCN^− less sensitive)): 6 fold
14 | CS[C@H]1SC[C@H]2C(=O)N(C)[C@@H](C(C)C)C(=O)OC[C@@H](NC(=O)c3cnc4ccccc4n3)C(=O)N[C@@H](C)C(=O)N(C)[C@@H]1C(=O)N(C)[C@@H](C(C)C)C(=O)OC[C@@H](NC(=O)c1cnc3ccccc3n1)C(=O)N[C@@H](C)C(=O)N2C [echinomycin] | – | 0.71 | – | 5.72 ± 0.22 | 4.03 ± 0.89 | –
